# Assay results from ChEMBL document CHEMBL1201862, “PubChem BioAssay data set” (2004).
#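 All cell lines were grown in 96-well plates and treated with compound for 48 hours. GI50 = concentration required for 50% inhibition of growth.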 Activity calls are given as the source filed them. No stated cut-off is given here; in the data, active = GI50 up to about 1.1 µM and inactive = higher.
# Key:
# Test in all cases: NCI anticancer screen, dose series, 48 h
# OVCAR-4 = system: OVCAR-4
# SN12C = system: SN12C
# HOP-62 = system: HOP-62
# SF-295 = system: SF-295
# EKVX = system: EKVX
# HT-29 = system: HT-29
# OVCAR-3 = system: OVCAR-3
# DU-145 = system: DU-145
# SF-539 = system: SF-539
# M14 = system: M14
# UO-31 = system: UO-31
# NCI-H226 = system: NCI-H226
# OVCAR-8 = system: OVCAR-8
# MDA-MB-231 = system: MDA-MB-231
# MDA-N = system: MDA-N
# SW-620 = system: SW-620
# RPMI-8226 = system: RPMI-8226
# TK-10 = system: TK-10
# NCI-H460 = system: NCI-H460
# SNB-19 = system: SNB-19
SMILES,GI50 (OVCAR-4),GI50 (SN12C),GI50 (HOP-62),GI50 (SF-295),GI50 (EKVX),GI50 (HT-29),GI50 (OVCAR-3),GI50 (DU-145),GI50 (SF-539),GI50 (M14),GI50 (UO-31),GI50 (NCI-H226),GI50 (OVCAR-8),GI50 (MDA-MB-231),GI50 (MDA-N),GI50 (SW-620),GI50 (RPMI-8226),GI50 (TK-10),GI50 (NCI-H460),GI50 (SNB-19)
COC(=O)C1=C(OC(=O)c2ccccc2)C(C(=O)OC)[C@@]2(O)[C@@H](C(=O)OC)[C@H](C)C[C@@H]1[C@@H]2C(=O)OC (stereo not given in full),31.6 µM (inactive),41.8 µM (inactive),33.1 µM (inactive),35.1 µM (inactive),31.6 µM (inactive),34.6 µM (inactive),46.2 µM (inactive),59.3 µM (inactive),14.5 µM (inactive),28.3 µM (inactive),29.5 µM (inactive),45.5 µM (inactive),26.4 µM (inactive),37.7 µM (inactive),21.4 µM (inactive),28.6 µM (inactive),19 µM (inactive),75.9 µM (inactive),25.3 µM (inactive),74.6 µM (inactive)
CN1N=C(c2ccncc2)OC1c1ccccc1F (stereo not given),> 100 µM (inactive),> 100 µM (inactive),> 100 µM (inactive),> 100 µM (inactive),> 100 µM (inactive),> 100 µM (inactive),> 100 µM (inactive),> 100 µM (inactive),> 100 µM (inactive),> 100 µM (inactive),> 100 µM (inactive),73.1 µM (inactive),> 100 µM (inactive),> 100 µM (inactive),> 100 µM (inactive),> 100 µM (inactive),> 100 µM (inactive),> 100 µM (inactive),> 100 µM (inactive),> 100 µM (inactive)
COc1ccc(N(CN2C(=O)CCC2C(=O)O)C(C)=O)cc1 (stereo not given),> 100 µM (inactive),> 100 µM (inactive),> 100 µM (inactive),> 100 µM (inactive),> 100 µM (inactive),> 100 µM (inactive),> 100 µM (inactive),> 100 µM (inactive),> 100 µM (inactive),> 100 µM (inactive),> 100 µM (inactive),> 100 µM (inactive),> 100 µM (inactive),> 100 µM (inactive),> 100 µM (inactive),> 100 µM (inactive),> 100 µM (inactive),> 100 µM (inactive),> 100 µM (inactive),> 100 µM (inactive)
N=C(NCc1ccccc1)N/N=C\c1ccnc2ccccc12,11.7 µM (inactive),15.1 µM (inactive),16 µM (inactive),15.3 µM (inactive),10 µM (inactive),11.2 µM (inactive),11.6 µM (inactive),16.5 µM (inactive),15.7 µM (inactive),4.84 µM (inactive),10.4 µM (inactive),17.1 µM (inactive),13.5 µM (inactive),13.9 µM (inactive),10.9 µM (inactive),14.8 µM (inactive),1.29 µM (inactive),14.8 µM (inactive),13.9 µM (inactive),17.9 µM (inactive)
O=Cc1ccc(-c2cc(C=O)c(-c3cccs3)[nH]2)s1,26 µM (inactive),53.6 µM (inactive),21.3 µM (inactive),21.8 µM (inactive),40 µM (inactive),25.1 µM (inactive),18.5 µM (inactive),42.6 µM (inactive),24.4 µM (inactive),24 µM (inactive),26.6 µM (inactive),4.76 µM (inactive),21.4 µM (inactive),29.6 µM (inactive),18.6 µM (inactive),> 75 µM (inactive),53.2 µM (inactive),24.4 µM (inactive),25.8 µM (inactive),44.9 µM (inactive)
CCOC(=O)C(C)NC(=O)C(C)NC(=O)C(C)NC(=O)C(C)NC(=O)C(C)NC(=O)OCc1ccccc1 (stereo not given),> 100 µM (inactive),> 100 µM (inactive),> 100 µM (inactive),> 100 µM (inactive),> 100 µM (inactive),> 100 µM (inactive),> 100 µM (inactive),> 100 µM (inactive),> 100 µM (inactive),> 100 µM (inactive),> 100 µM (inactive),> 100 µM (inactive),> 100 µM (inactive),> 100 µM (inactive),> 100 µM (inactive),> 100 µM (inactive),> 100 µM (inactive),> 100 µM (inactive),> 100 µM (inactive),> 100 µM (inactive)
COC(=O)/C=C\C(C#N)(C#N)/N=C/c1ccc(C)cc1,3.89 µM (inactive),13.2 µM (inactive),19.3 µM (inactive),25.2 µM (inactive),14.4 µM (inactive),3.8 µM (inactive),2.6 µM (inactive),5.86 µM (inactive),4.38 µM (inactive),2.01 µM (inactive),2.49 µM (inactive),8.75 µM (inactive),2.25 µM (inactive),15.5 µM (inactive),4.06 µM (inactive),1.95 µM (inactive),0.586 µM (active),1.8 µM (inactive),19.6 µM (inactive),19.5 µM (inactive)
Oc1ccc2ccccc2c1-c1c(Nc2ccccc2)ccc2ccccc12,12.3 µM (inactive),27 µM (inactive),16.1 µM (inactive),16.8 µM (inactive),16.9 µM (inactive),33.7 µM (inactive),9.4 µM (inactive),17.3 µM (inactive),14 µM (inactive),11.7 µM (inactive),15.7 µM (inactive),21 µM (inactive),16.6 µM (inactive),0.498 µM (active),6.22 µM (inactive),11.4 µM (inactive),17.8 µM (inactive),16.9 µM (inactive),15.4 µM (inactive),18.5 µM (inactive)
COc1cc(/C=C2/C(=O)N(C(=O)c3ccccc3O)N=C2C)cc(OC)c1OC,2.73 µM (inactive),3.1 µM (inactive),1.29 µM (inactive),1.16 µM (inactive),5.5 µM (inactive),34.4 µM (inactive),1.53 µM (inactive),2.44 µM (inactive),0.839 µM (active),7.38 µM (inactive),0.558 µM (active),6.21 µM (inactive),1.67 µM (inactive),23.5 µM (inactive),1.02 µM (active),6.22 µM (inactive),> 22.2 µM (inactive),9.79 µM (inactive),1.43 µM (inactive),1.44 µM (inactive)
NC(=O)C[C@H](NC(=O)C1(NC(=O)[C@H](Cc2ccc(CP(=O)(O)O)cc2)NC(=O)C(=O)O)CCCCC1)C(=O)NCCCc1cccc2ccccc12,> 10 µM (inactive),> 10 µM (inactive),> 10 µM (inactive),> 10 µM (inactive),> 10 µM (inactive),> 10 µM (inactive),> 10 µM (inactive),> 10 µM (inactive),> 10 µM (inactive),> 10 µM (inactive),> 10 µM (inactive),7.45 µM (inactive),> 10 µM (inactive),> 10 µM (inactive),> 10 µM (inactive),> 10 µM (inactive),> 10 µM (inactive),> 10 µM (inactive),> 10 µM (inactive),> 10 µM (inactive)
